Laboratory results taken from PubChem BioAssay AID248 (DTP/NCI, 2004).
Where “and” joins values, the source holds several entries; their conditions need not be identical. Equal entries are not always repeated. Toxic doses and inconclusive results are not listed. Cut-off read from the data, not from the text of the source: active = T/C of 150% or more; inactive = T/C below 125%.

Test system: L1210 leukemia ip in BDF1 mice, survival T/C
Assay: NCI In Vivo Anticancer Drug Screen. Data for tumor model L1210 Leukemia (intraperitoneal) in B6D2F1 (BDF1) mice
Settings: higher = longer survival
Method in brief: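 Antitumor effect is assessed in tumor-bearing animals. Survival in the compound arm is compared with a vehicle-dosed control arm and expressed as their quotient.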

[1] = endpoint: mean survival time, dose: 100.0 mg/kg/injection, schedule: Q01DX001 (ip), vehicle: saline with Tween-80
[2] = endpoint: mean survival time, dose: 200.0 mg/kg/injection, schedule: Q01DX001 (ip), vehicle: saline with Tween-80
[3] = endpoint: mean survival time, dose: 400.0 mg/kg/injection, schedule: Q01DX001 (ip), vehicle: saline with Tween-80
[4] = endpoint: mean survival time, dose: 25.0 mg/kg/injection, schedule: Q01DX009 (ip), vehicle: saline
[5] = endpoint: mean survival time, dose: 100.0 mg/kg/injection, schedule: Q04DX003 (ip), vehicle: Klucel (hydroxypropylcellulose) (HPC)
[6] = endpoint: mean survival time, dose: 200.0 mg/kg/injection, schedule: Q04DX003 (ip), vehicle: Klucel (hydroxypropylcellulose) (HPC)
[7] = endpoint: mean survival time, dose: 400.0 mg/kg/injection, schedule: Q04DX003 (ip), vehicle: Klucel (hydroxypropylcellulose) (HPC)
[8] = endpoint: mean survival time, dose: 100.0 mg/kg/injection, schedule: Q01DX009 (ip), vehicle: saline with Tween-80
[9] = endpoint: mean survival time, dose: 100.0 mg/kg/injection, schedule: Q04DX003 (ip), vehicle: saline with Tween-80
[10] = endpoint: mean survival time, dose: 200.0 mg/kg/injection, schedule: Q01DX009 (ip), vehicle: saline with Tween-80
[11] = endpoint: mean survival time, dose: 200.0 mg/kg/injection, schedule: Q04DX003 (ip), vehicle: saline with Tween-80
[12] = endpoint: mean survival time, dose: 400.0 mg/kg/injection, schedule: Q04DX003 (ip), vehicle: saline with Tween-80
[13] = endpoint: mean survival time, dose: 100.0 mg/kg/injection, schedule: Q01DX001 (ip), vehicle: saline
[14] = endpoint: mean survival time, dose: 200.0 mg/kg/injection, schedule: Q01DX001 (ip), vehicle: saline
[15] = endpoint: mean survival time, dose: 400.0 mg/kg/injection, schedule: Q01DX001 (ip), vehicle: saline

Measured: T/C

NC(=O)c1cc([N+](=O)[O-])ccc1N1CC[N+](CCCl)=N1
inactive: [1] 100 % of control | [2] 91 % of control | [3] 90 % of control

CN1CC(C(=O)N2CCCCC2)C=C2c3cccc4[nH]cc(c34)CC21 (stereo not given)
inactive: endpoint: mean survival time, dose: 3.12 mg/kg/injection, schedule: Q01DX009 (ip), vehicle: saline 95 % of control | endpoint: mean survival time, dose: 6.25 mg/kg/injection, schedule: Q01DX009 (ip), vehicle: saline 97 % of control | endpoint: mean survival time, dose: 12.5 mg/kg/injection, schedule: Q01DX009 (ip), vehicle: saline 98 % of control | [4] 104 % of control | endpoint: mean survival time, dose: 25.0 mg/kg/injection, schedule: Q04DX003 (ip), vehicle: saline 100 % of control | endpoint: mean survival time, dose: 50.0 mg/kg/injection, schedule: Q01DX009 (ip), vehicle: saline 93 % of control | endpoint: mean survival time, dose: 50.0 mg/kg/injection, schedule: Q04DX003 (ip), vehicle: saline 98 % of control | endpoint: mean survival time, dose: 100.0 mg/kg/injection, schedule: Q04DX003 (ip), vehicle: saline 97 % of control

NC(=S)NNC=O
inactive: [5] 95 % of control | [6] 92 % of control | [7] 100 % of control

CCCN(CCC)N=Nc1ccccc1C(N)=O
inactive: endpoint: mean survival time, dose: 100.0 mg/kg/injection, schedule: Q01DX001 (ip), vehicle: other 107 % of control | [8] 90 % of control | [9] 104 % of control | endpoint: mean survival time, dose: 200.0 mg/kg/injection, schedule: Q01DX001 (ip), vehicle: other 102 % of control | [10] 102 % of control | [11] 94 % of control | endpoint: mean survival time, dose: 400.0 mg/kg/injection, schedule: Q01DX001 (ip), vehicle: other 103 % of control | [12] 98 % of control

C=C(Cl)CSc1ccccc1
inactive: [13] 103 % of control | [14] 103 % of control | [15] 105 % of control

O=S(=O)(O)SCCN1CCCCCCC1
inactive: endpoint: mean survival time, dose: 100.0 mg/kg/injection, schedule: Q01DX009 (ip), vehicle: saline 95 % of control

CCOC(=O)C(C)Oc1cccc(O)c1[N+](=O)[O-] (stereo not given)
inactive: [1] 95 % of control | [2] 97 % of control | [3] 90 % of control

O=C(c1ccccc1)C1(c2ccccc2)OC1(C(=O)c1ccccc1)c1ccccc1 (stereo not given)
inactive: endpoint: mean survival time, dose: 100.0 mg/kg/injection, schedule: Q01DX001 (ip), vehicle: Klucel (hydroxypropylcellulose) (HPC) 94 % of control | [8] 92 % of control | endpoint: mean survival time, dose: 200.0 mg/kg/injection, schedule: Q01DX001 (ip), vehicle: Klucel (hydroxypropylcellulose) (HPC) 94 % of control | [10] 101 % of control | endpoint: mean survival time, dose: 400.0 mg/kg/injection, schedule: Q01DX001 (ip), vehicle: Klucel (hydroxypropylcellulose) (HPC) 87 % of control | endpoint: mean survival time, dose: 400.0 mg/kg/injection, schedule: Q01DX009 (ip), vehicle: saline with Tween-80 95 % of control

Nc1ncnc2[nH]ncc12
inactive: endpoint: mean survival time, dose: 0.94 mg/kg/injection, schedule: Q01DX Z (ip), vehicle: carboxymethylcellulose (CMC) 92 % of control | endpoint: mean survival time, dose: 1.7 mg/kg/injection, schedule: Q01DX015 (ip), vehicle: carboxymethylcellulose (CMC) 98 % of control | endpoint: mean survival time, dose: 1.88 mg/kg/injection, schedule: Q01DX Z (ip), vehicle: carboxymethylcellulose (CMC) 97 % of control | endpoint: mean survival time, dose: 2.6 mg/kg/injection, schedule: Q01DX015 (ip), vehicle: carboxymethylcellulose (CMC) 96 % of control and 99 % of control | endpoint: mean survival time, dose: 3.75 mg/kg/injection, schedule: Q01DX Z (ip), vehicle: carboxymethylcellulose (CMC) 114 % of control | endpoint: mean survival time, dose: 4.0 mg/kg/injection, schedule: Q01DX015 (ip), vehicle: carboxymethylcellulose (CMC) 107 % of control and 108 % of control | endpoint: mean survival time, dose: 6.0 mg/kg/injection, schedule: Q01DX015 (ip), vehicle: carboxymethylcellulose (CMC) 111 % of control and 114 % of control | endpoint: mean survival time, dose: 7.5 mg/kg/injection, schedule: Q01DX Z (ip), vehicle: carboxymethylcellulose (CMC) 114 % of control | endpoint: mean survival time, dose: 8.0 mg/kg/injection, schedule: Q02DX010 (ip), vehicle: carboxymethylcellulose (CMC) 109 % of control | endpoint: mean survival time, dose: 9.0 mg/kg/injection, schedule: Q01DX015 (ip), vehicle: carboxymethylcellulose (CMC) 109 % of control and 120 % of control | endpoint: mean survival time, dose: 13.0 mg/kg/injection, schedule: Q02DX010 (ip), vehicle: other 115 % of control | endpoint: mean survival time, dose: 13.5 mg/kg/injection, schedule: Q01DX015 (ip), vehicle: carboxymethylcellulose (CMC) 106 % of control | endpoint: mean survival time, dose: 20.0 mg/kg/injection, schedule: Q02DX010 (ip), vehicle: other 120 % of control | [4] 106 % of control | endpoint: mean survival time, dose: 30.0 mg/kg/injection, schedule: Q02DX010 (ip), vehicle: other 115 % of control | endpoint: mean survival time, dose: 45.0 mg/kg/injection, schedule: Q02DX010 (ip), vehicle: other 121 % of control | endpoint: mean survival time, dose: 67.0 mg/kg/injection, schedule: Q02DX010 (ip), vehicle: other 91 % of control | endpoint: mean survival time, dose: 80.0 mg/kg/injection, schedule: Q01DX001 (ip), vehicle: carboxymethylcellulose (CMC) 111 % of control | endpoint: mean survival time, dose: 120.0 mg/kg/injection, schedule: Q01DX001 (ip), vehicle: carboxymethylcellulose (CMC) 103 % of control | endpoint: mean survival time, dose: 182.0 mg/kg/injection, schedule: Q01DX001 (ip), vehicle: carboxymethylcellulose (CMC) 117 % of control | endpoint: median survival time, dose: 3.0 mg/kg/injection, schedule: Q01DX009 (ip), vehicle: saline 100 % of control and 105 % of control | endpoint: median survival time, dose: 6.0 mg/kg/injection, schedule: Q01DX009 (ip), vehicle: saline 100 % of control and 111 % of control | endpoint: median survival time, dose: 12.0 mg/kg/injection, schedule: Q01DX009 (ip), vehicle: saline 112 % of control | endpoint: median survival time, dose: 24.0 mg/kg/injection, schedule: Q01DX009 (ip), vehicle: saline 100 % of control and 112 % of control

NC(CO)C(O)c1ccc([N+](=O)[O-])cc1 (stereo not given)
inactive: endpoint: mean survival time, dose: 100.0 mg/kg/injection, schedule: Q01DX009 (ip), vehicle: Klucel (hydroxypropylcellulose) (HPC) 101 % of control | [5] 91 % of control | endpoint: mean survival time, dose: 200.0 mg/kg/injection, schedule: Q01DX009 (ip), vehicle: Klucel (hydroxypropylcellulose) (HPC) 101 % of control | [6] 100 % of control | endpoint: mean survival time, dose: 400.0 mg/kg/injection, schedule: Q01DX009 (ip), vehicle: Klucel (hydroxypropylcellulose) (HPC) 101 % of control | [7] 98 % of control

O=C(Nc1ccc(Cl)cc1)Oc1ccc(Nc2ccccc2)cc1
inactive: endpoint: mean survival time, dose: 100.0 mg/kg/injection, schedule: Q04DX002 (ip), vehicle: Klucel (hydroxypropylcellulose) (HPC) 114 % of control | endpoint: mean survival time, dose: 200.0 mg/kg/injection, schedule: Q04DX002 (ip), vehicle: Klucel (hydroxypropylcellulose) (HPC) 111 % of control | endpoint: mean survival time, dose: 400.0 mg/kg/injection, schedule: Q04DX002 (ip), vehicle: Klucel (hydroxypropylcellulose) (HPC) 111 % of control

ClC(Cl)c1ccccc1
inactive: [9] 98 % of control | [11] 95 % of control | [12] 87 % of control

COc1ccc2c(=O)c(O)c(-c3ccc(OC)c(OC)c3)oc2c1
inactive: endpoint: mean survival time, dose: 50.0 mg/kg/injection, schedule: Q01DX001 (ip), vehicle: saline 97 % of control | [13] 94 % of control | [14] 92 % of control | [15] 94 % of control
